Tests used:
[1] = biological target: T1, αvβ1 (UniProt G3HZ55+P06756); test: αvβ1 cell adhesion inhibition test (αv-transfected CHO cells on human fibronectin); format: cell-based; details: human fibronectin coating, 1 mM MnCl2, 1 hour, read-out: IC50 (rate of inhibition of cell adhesion, αvβ1)
T1 construct: expressed in transfected cells; host or cells: CHO cells deficient in α5 gene, transfected with αv gene
Description: Test Example 1 was performed by partially modifying the method of Reed et al. (Sci Transl Med., 7 (288), 288ra79, 2015).
Human fibronectin (manufactured by Sigma-Aldrich Co. LLC, F0895) was prepared at 1.25 μg/mL with phosphate buffered saline (PBS), dispensed at 100 μL/well to a 96-well plate, and left standing overnight. The plate was washed with Hanks' balanced salt solution (HBSS), then subjected to blocking treatment with Dulbecco's modified Eagle medium (DMEM) containing 1% bovine serum-derived albumin (BSA) (FUJIFILM Wako Pure Chemical Corp., for cell culture, 017-22231), and used as a coated plate in the adhesion test.
αv-transfected cells (CHO cells deficient in α5 gene and transfected with αv gene) cultured in Ham's F-12 medium (FUJIFILM Wako Pure Chemical Corp., 087-08335) containing 10% fetal bovine serum (FBS), 1% penicillin/streptomycin/amphotericin B (manufactured by Thermo Fisher Scientific, Inc., 15240), 1 mM GlutaMAX Supplement (manufactured by Thermo Fisher Scientific, Inc., 35050), and 400 μg/mL hygromycin B (FUJIFILM Wako Pure Chemical Corp., 080-07683) were recovered and suspended in DMEM containing 1 mM MnCl2 (manufactured by Sigma-Aldrich Co. LLC, M1787) to prepare a cell suspension. A test compound dissolved in DMSO was added thereto.
(§1) The cell suspension of 1×10^6 cells/mL containing the test compound was added at 100 μL/well to the coated plate and left standing for 1 hour in a 5% CO2 incubator (37° C.). One hour later, the supernatant was removed, and the plate was washed with HBSS. The cells that adhered to each well in the plate were stained with crystal violet, and the cells were lysed, followed by absorbance measurement. Inhibition without substrate coating was defined as 100% inhibition, and inhibition when DMSO was added instead of the test compound was defined as 0% inhibition. The rate of inhibition of cell adhesion by the test compound was calculated according to the following expression.
Rate of inhibition of cell adhesion (%)=[1−{(Absorbance in the case of adding the test compound)−(Absorbance without substrate coating)}/{(Absorbance in the case of adding DMSO)−(Absorbance without substrate coating)}]×100
(§2) An IC50 value was calculated from the rate of inhibition of cell adhesion by the test compound. A: IC50<3 nM, B: 3 nM≤IC50<10 nM, C: 10 nM≤IC50<30 nM, D: 30 nM≤IC50<100 nM, or E: IC50≥100 nM.

[2] = biological target: T2, αvβ6 (Homo sapiens, UniProt P06756+P18564); test: αvβ6 cell adhesion inhibition test (HT-29 cells on recombinant human LAP protein); format: cell-based; details: recombinant human LAP coating, 200 μM MnCl2, 1 hour, read-out: IC50 (rate of inhibition of cell adhesion, αvβ6)
T2 construct: endogenous in cells; host or cells: HT-29 cells
T2 sequence (P06756 31-889 limits assumed): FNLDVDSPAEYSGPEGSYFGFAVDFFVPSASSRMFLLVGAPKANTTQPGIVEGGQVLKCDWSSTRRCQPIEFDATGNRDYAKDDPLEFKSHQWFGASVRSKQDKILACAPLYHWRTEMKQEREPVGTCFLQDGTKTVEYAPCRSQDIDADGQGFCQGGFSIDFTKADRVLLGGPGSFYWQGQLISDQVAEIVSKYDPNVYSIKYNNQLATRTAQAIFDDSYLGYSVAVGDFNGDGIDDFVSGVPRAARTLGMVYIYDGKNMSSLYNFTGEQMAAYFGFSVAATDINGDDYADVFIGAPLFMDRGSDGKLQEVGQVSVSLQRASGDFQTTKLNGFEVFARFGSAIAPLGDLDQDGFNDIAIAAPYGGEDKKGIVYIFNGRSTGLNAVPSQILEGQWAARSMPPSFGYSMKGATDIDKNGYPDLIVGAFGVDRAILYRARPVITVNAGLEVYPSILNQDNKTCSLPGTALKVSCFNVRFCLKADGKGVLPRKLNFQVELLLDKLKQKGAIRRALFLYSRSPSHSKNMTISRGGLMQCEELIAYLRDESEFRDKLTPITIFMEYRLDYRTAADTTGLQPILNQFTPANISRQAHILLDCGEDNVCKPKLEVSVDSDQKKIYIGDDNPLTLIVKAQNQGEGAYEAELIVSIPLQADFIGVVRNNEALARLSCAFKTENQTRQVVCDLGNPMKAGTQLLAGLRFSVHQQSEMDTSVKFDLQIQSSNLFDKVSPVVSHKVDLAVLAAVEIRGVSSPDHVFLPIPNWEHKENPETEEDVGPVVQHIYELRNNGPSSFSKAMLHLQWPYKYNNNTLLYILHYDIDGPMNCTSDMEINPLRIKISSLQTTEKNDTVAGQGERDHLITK
T2 sequence (P06756 891-1048 limits assumed): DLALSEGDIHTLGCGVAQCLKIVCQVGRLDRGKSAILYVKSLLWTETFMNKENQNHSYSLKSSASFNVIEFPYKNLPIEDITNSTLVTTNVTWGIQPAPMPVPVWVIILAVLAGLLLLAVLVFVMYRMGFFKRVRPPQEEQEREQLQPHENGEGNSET
T2 sequence (P18564 22-788): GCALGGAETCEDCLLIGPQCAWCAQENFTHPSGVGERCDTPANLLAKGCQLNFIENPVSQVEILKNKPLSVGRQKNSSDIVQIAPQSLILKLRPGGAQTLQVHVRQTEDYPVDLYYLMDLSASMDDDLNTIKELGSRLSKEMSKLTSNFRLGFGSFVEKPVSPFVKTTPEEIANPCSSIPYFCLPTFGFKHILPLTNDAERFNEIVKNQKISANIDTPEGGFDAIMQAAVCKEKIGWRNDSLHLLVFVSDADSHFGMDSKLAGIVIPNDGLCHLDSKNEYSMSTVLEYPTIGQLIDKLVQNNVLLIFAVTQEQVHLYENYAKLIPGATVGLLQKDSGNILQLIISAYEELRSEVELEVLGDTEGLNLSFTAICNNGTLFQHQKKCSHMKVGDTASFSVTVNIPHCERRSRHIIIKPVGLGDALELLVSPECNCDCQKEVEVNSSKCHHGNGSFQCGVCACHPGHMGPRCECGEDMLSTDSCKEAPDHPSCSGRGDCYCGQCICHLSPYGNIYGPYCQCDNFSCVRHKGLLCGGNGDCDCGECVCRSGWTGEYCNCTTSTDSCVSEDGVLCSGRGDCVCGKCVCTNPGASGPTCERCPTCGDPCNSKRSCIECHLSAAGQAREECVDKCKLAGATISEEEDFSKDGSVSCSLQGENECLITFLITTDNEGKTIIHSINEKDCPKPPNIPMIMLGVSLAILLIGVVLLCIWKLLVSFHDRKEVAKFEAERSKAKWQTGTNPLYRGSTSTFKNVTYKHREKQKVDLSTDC
Description: Test Example 2 was performed by partially modifying the method of Henderson et al. (Nat Med., 19 (12), 1617-24, 2013). In Test Example 2, the same reagents as in Test Example 1 were used unless otherwise specified.
Recombinant human LAP protein (manufactured by R&D Systems, Inc., 246-LP-025) was prepared at […] with PBS, dispensed at 100 μL/well to a 96-well plate, and left standing overnight. The plate was washed with HBSS, then subjected to blocking treatment with DMEM containing 1% BSA, and used as a coated plate in the adhesion test.
HT-29 cells cultured in McCoy's 5A medium (manufactured by Thermo Fisher Scientific, Inc., 16600) containing 10% FBS and 1% penicillin/streptomycin/amphotericin B were recovered and suspended in DMEM containing 0.1% BSA and 200 μM MnCl2 to prepare a cell suspension. A test compound was added thereto.
as §1, with “5×10^5” for “1×10^6”, “HBSS containing 200 μM MnCl2.” for “HBSS.”
Rate of inhibition of cell adhesion (%)=[1−{(Absorbance in the case of adding the test compound)−(Absorbance without substrate coating)}/{(Absorbance in the case of adding DMS)−(Absorbance without substrate coating)}]×100
as §2

T1 sequence (P06756 31-889 limits assumed): as the sequence (P06756 31-889 limits assumed) above
T1 sequence (P06756 891-1048 limits assumed): as the sequence (P06756 891-1048 limits assumed) above
T1 sequence (G3HZ55 21-798): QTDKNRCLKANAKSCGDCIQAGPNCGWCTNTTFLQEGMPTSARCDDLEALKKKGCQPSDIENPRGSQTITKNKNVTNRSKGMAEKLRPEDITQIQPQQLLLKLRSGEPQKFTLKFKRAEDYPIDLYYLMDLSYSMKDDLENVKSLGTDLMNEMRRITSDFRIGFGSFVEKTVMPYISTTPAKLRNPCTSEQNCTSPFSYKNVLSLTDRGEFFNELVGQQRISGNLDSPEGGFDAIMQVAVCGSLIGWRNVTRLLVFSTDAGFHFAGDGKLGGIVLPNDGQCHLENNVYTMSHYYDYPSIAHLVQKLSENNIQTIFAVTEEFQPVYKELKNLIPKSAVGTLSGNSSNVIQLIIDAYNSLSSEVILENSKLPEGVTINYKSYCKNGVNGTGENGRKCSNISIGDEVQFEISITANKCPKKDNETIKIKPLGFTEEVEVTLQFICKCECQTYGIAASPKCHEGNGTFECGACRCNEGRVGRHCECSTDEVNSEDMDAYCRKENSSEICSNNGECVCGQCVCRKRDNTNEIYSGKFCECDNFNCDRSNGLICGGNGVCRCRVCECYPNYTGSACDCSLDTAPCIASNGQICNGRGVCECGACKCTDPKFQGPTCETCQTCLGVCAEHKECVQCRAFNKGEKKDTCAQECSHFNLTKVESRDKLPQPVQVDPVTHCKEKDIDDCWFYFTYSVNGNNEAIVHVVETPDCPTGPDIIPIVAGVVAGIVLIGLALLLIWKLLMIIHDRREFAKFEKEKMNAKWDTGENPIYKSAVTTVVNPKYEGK

Structure (SMILES)	IC50 [1]	IC50 [2]
O=C(O)C[C@H](NC(=O)CNC(=O)c1cc(NC2=NCC(F)CN2)c2cn[nH]c2c1)c1cc(Cl)cc(Cl)c1 (stereo partly drawn) [Example 17-(b), (3S)-3-(3,5-dichlorophenyl)-3-(2-(4-((5-fluoro-1,4,5,6-tetrahydropyrimidin-2-yl)amino)-1H-indazole-6-carboxamido)acetamido)propanoic acid]	< 3 nM	3 to 10 nM
O=C(O)C[C@H](NC(=O)CNC(=O)c1cc(NC2=NCC(F)CN2)c2cn[nH]c2c1)c1cc(Cl)cc(Br)c1 (stereo partly drawn) [Example 18-(b), (3S)-3-(3-bromo-5-chlorophenyl)-3-(2-(4-((5-fluoro-1,4,5,6-tetrahydropyrimidin-2-yl)amino)-1H-indazole-6-carboxamido)acetamido)propanoic acid]	< 3 nM	< 3 nM
O=C(O)C[C@H](NC(=O)CNC(=O)c1cc(NC2=NCC(F)CN2)c2cn[nH]c2c1)c1cc(Br)cc(Br)c1 (stereo partly drawn) [Example 19-(b), (3S)-3-(3,5-dibromophenyl)-3-(2-(4-((5-fluoro-1,4,5,6-tetrahydropyrimidin-2-yl)amino)-1H-indazole-6-carboxamido)acetamido)propanoic acid]	< 3 nM	< 3 nM
O=C(O)C[C@H](NC(=O)CNC(=O)c1cc(NC2=NCC(F)CN2)c2cn[nH]c2c1)c1cc(Br)cc(I)c1 (stereo partly drawn) [Example 20-(b), (3S)-3-(3-bromo-5-iodophenyl)-3-(2-(4-((5-fluoro-1,4,5,6-tetrahydropyrimidin-2-yl)amino)-1H-indazole-6-carboxamido)acetamido)propanoic acid]	< 3 nM	< 3 nM
O=C(O)C[C@H](NC(=O)CNC(=O)c1cc(NC2=NCC(F)CN2)c2cn[nH]c2c1)c1cc(Cl)cc(I)c1 (stereo partly drawn) [Example 21-(b), (3S)-3-(3-chloro-5-iodophenyl)-3-(2-(4-((5-fluoro-1,4,5,6-tetrahydropyrimidin-2-yl)amino)-1H-indazole-6-carboxamido)acetamido)propanoic acid]	< 3 nM	< 3 nM
O=C(O)C[C@H](NC(=O)CNC(=O)c1cc(NC2=NCC(F)CN2)c2cn[nH]c2c1)c1cc(Cl)ccc1F (stereo partly drawn) [Example 22-(b), (3S)-3-(5-chloro-2-fluorophenyl)-3-(2-(4-((5-fluoro-1,4,5,6-tetrahydropyrimidin-2-yl)amino)-1H-indazole-6-carboxamido)acetamido)propanoic acid]	10 to 30 nM	3 to 10 nM
O=C(O)C[C@H](NC(=O)CNC(=O)c1cc(NC2=NCC(F)CN2)c2cn[nH]c2c1)c1cc(Br)ccc1F (stereo partly drawn) [Example 23-(b), (3S)-3-(5-bromo-2-fluorophenyl)-3-(2-(4-((5-fluoro-1,4,5,6-tetrahydropyrimidin-2-yl)amino)-1H-indazole-6-carboxamido)acetamido)propanoic acid]	< 3 nM	3 to 10 nM
O=C(O)C[C@H](NC(=O)CNC(=O)c1cc(NC2=NCC(F)CN2)c2cn[nH]c2c1)c1cc(OC(F)F)cc(C(F)(F)F)c1 (stereo partly drawn) [Example 24-(b), (3S)-3-(3-(difluoromethoxy)-5-(trifluoromethyl)phenyl)-3-(2-(4-((5-fluoro-1,4,5,6-tetrahydropyrimidin-2-yl)amino)-1H-indazole-6-carboxamido)acetamido)propanoic acid]	< 3 nM	< 3 nM
O=C(O)C[C@H](NC(=O)CNC(=O)c1cc(NC2=NCC(F)CN2)c2cn[nH]c2c1)c1cc(Cl)cc(OC(F)F)c1 (stereo partly drawn) [Example 25-(b), (3S)-3-(3-chloro-5-(difluoromethoxy)phenyl)-3-(2-(4-((5-fluoro-1,4,5,6-tetrahydropyrimidin-2-yl)amino)-1H-indazole-6-carboxamido)acetamido)propanoic acid]	< 3 nM	< 3 nM
O=C(O)C[C@H](NC(=O)CNC(=O)c1cc(NC2=NCC(F)CN2)c2cn[nH]c2c1)c1cc(Br)cc(OC(F)F)c1 (stereo partly drawn) [Example 26-(b), (3S)-3-(3-bromo-5-(difluoromethoxy)phenyl)-3-(2-(4-((5-fluoro-1,4,5,6-tetrahydropyrimidin-2-yl)amino)-1H-indazole-6-carboxamido)acetamido)propanoic acid]	< 3 nM	< 3 nM
O=C(O)C[C@H](NC(=O)CNC(=O)c1cc(NC2=NCC(F)CN2)c2cn[nH]c2c1)c1ccc(F)c(OC(F)F)c1 (stereo partly drawn) [Example 27-(b), (3S)-3-(3-(difluoromethoxy)-4-fluorophenyl)-3-(2-(4-((5-fluoro-1,4,5,6-tetrahydropyrimidin-2-yl)amino)-1H-indazole-6-carboxamido)acetamido)propanoic acid]	< 3 nM	3 to 10 nM
O=C(O)C[C@H](NC(=O)CNC(=O)c1cc(NC2=NCC(F)CN2)c2cn[nH]c2c1)c1cc(OC(F)F)ccc1F (stereo partly drawn) [Example 28-(b), (3S)-3-(5-(difluoromethoxy)-2-fluorophenyl)-3-(2-(4-((5-fluoro-1,4,5,6-tetrahydropyrimidin-2-yl)amino)-1H-indazole-6-carboxamido)acetamido)propanoic acid]	< 3 nM	< 3 nM
O=C(O)C[C@H](NC(=O)CNC(=O)c1cc(NC2=NCC(F)CN2)c2cn[nH]c2c1)c1cc(OC(F)F)cc(-n2cccn2)c1 (stereo partly drawn) [Example 29-(b), (3S)-3-(3-(difluoromethoxy)-5-(1H-pyrazol-1-yl)phenyl)-3-(2-(4-((5-fluoro-1,4,5,6-tetrahydropyrimidin-2-yl)amino)-1H-indazole-6-carboxamido)acetamido)propanoic acid]	< 3 nM	< 3 nM
O=C(O)C[C@H](NC(=O)CNC(=O)c1cc(NC2=NCC(F)CN2)c2cn[nH]c2c1)c1cc(OC(F)F)cc(OC(F)F)c1 (stereo partly drawn) [Example 30-(b), (3S)-3-(3,5-bis(difluoromethoxy)phenyl)-3-(2-(4-((5-fluoro-1,4,5,6-tetrahydropyrimidin-2-yl)amino)-1H-indazole-6-carboxamido)acetamido)propanoic acid]	< 3 nM	< 3 nM
O=C(O)C[C@H](NC(=O)CNC(=O)c1cc(NC2=NCC(F)CN2)c2cn[nH]c2c1)c1cc(Cl)cc(OC(F)(F)F)c1 (stereo partly drawn) [Example 31-(b), (3S)-3-(3-chloro-5-(trifluoromethoxy)phenyl)-3-(2-(4-((5-fluoro-1,4,5,6-tetrahydropyrimidin-2-yl)amino)-1H-indazole-6-carboxamido)acetamido)propanoic acid]	3 to 10 nM	< 3 nM
O=C(O)C[C@H](NC(=O)CNC(=O)c1cc(NC2=NCC(F)CN2)c2cn[nH]c2c1)c1cc(Br)cc(OC(F)(F)F)c1 (stereo partly drawn) [Example 32-(b), (3S)-3-(3-bromo-5-(trifluoromethoxy)phenyl)-3-(2-(4-((5-fluoro-1,4,5,6-tetrahydropyrimidin-2-yl)amino)-1H-indazole-6-carboxamido)acetamido)propanoic acid]	< 3 nM	< 3 nM
